Key:
[1] = Cytotoxicity against Pgp deficient human LCC6 cells after 72 hrs by sulforhodamine B test; type: functional, cell-based; conditions: C6, 72 h
[2] = Cytotoxicity against multidrug resistant Pgp expressing human LCC6 cells after 72 hrs by sulforhodamine B test; type: functional, cell-based; conditions: LCC-6, 72 h
C6 = assay: Resistance index, Ratio of IC50 for multidrug resistant Pgp expressing human LCC6 cells to IC50 for Pgp deficient human LCC6 cells; type: functional; set-up: reference not given here
[3] = Cytotoxicity against multidrug resistant Pgp expressing human NCI/ADR cells after 72 hrs by sulforhodamine B test; type: functional, cell-based; conditions: NCI/ADR-RES
MCF7 [4] = assay: Cytotoxicity against Pgp deficient human MCF7 cells after 72 hrs by sulforhodamine B test; type: functional, cell-based; conditions: MCF7, 72 h
MCF7 [5] = assay: Resistance index, Ratio of IC50 for multidrug resistant Pgp expressing human NCI/ADR cells to IC50 for Pgp deficient human MCF7 cells; type: functional; set-up: reference not given here

SMILES	IC50 [1] [nM]	IC50 [2] [nM]	Ratio IC50 (C6)	IC50 [3] [nM]	IC50 (MCF7 [4]) [nM]	Ratio IC50 (MCF7 [5])
CC(=O)O[C@@]12CO[C@@H]1C[C@H](O)[C@@]1(C)C(=O)[C@H](OC(=O)c3ccccc3)C3=C(C)[C@@H](OC(=O)[C@H](O)[C@H](C=C(C)C)NC(=O)OC(C)(C)C)C[C@@](O)([C@@H](OC(=O)c4ccccc4)[C@H]21)C3(C)C	1.8	4.8	2.7	–	–	–
CCC(=O)O[C@H]1C(=O)[C@@]2(C)[C@H]([C@H](OC(=O)c3cccc(F)c3)[C@]3(O)C[C@H](OC(=O)[C@H](O)[C@H](CC(C)C)NC(=O)OC(C)(C)C)C(C)=C1C3(C)C)[C@]1(OC(C)=O)CO[C@@H]1C[C@@H]2O	0.4	–	–	–	–	–
CC(=O)O[C@@]12CO[C@@H]1C[C@H](O)[C@@]1(C)C(=O)[C@H](OC(=O)CCc3ccccc3)C3=C(C)[C@@H](OC(=O)[C@H](O)[C@H](C=C(C)C)NC(=O)OC(C)(C)C)C[C@@](O)([C@@H](OC(=O)c4ccccc4)[C@H]21)C3(C)C	5.1	31.2	6.1	–	–	–
COc1ccccc1CC(=O)O[C@H]1C(=O)[C@@]2(C)[C@H]([C@H](OC(=O)c3ccccc3)[C@]3(O)C[C@H](OC(=O)[C@H](O)[C@H](C=C(C)C)NC(=O)OC(C)(C)C)C(C)=C1C3(C)C)[C@]1(OC(C)=O)CO[C@@H]1C[C@@H]2O	2.3	13.8	6	–	–	–
CCC(=O)O[C@H]1C(=O)[C@@]2(C)[C@H]([C@H](OC(=O)c3cccc(Cl)c3)[C@]3(O)C[C@H](OC(=O)[C@H](O)[C@H](C=C(C)C)NC(=O)OC(C)(C)C)C(C)=C1C3(C)C)[C@]1(OC(C)=O)CO[C@@H]1C[C@@H]2O	0.8	–	–	–	–	–
CCC(=O)O[C@H]1C(=O)[C@@]2(C)[C@H]([C@H](OC(=O)c3cccc(OC)c3)[C@]3(O)C[C@H](OC(=O)[C@H](O)[C@@H](NC(=O)OC(C)(C)C)[C@H]4CC4(C)C)C(C)=C1C3(C)C)[C@]1(OC(C)=O)CO[C@@H]1C[C@@H]2O	0.48	–	–	1.5	0.6	–
C/C=C/[C@H](NC(=O)OC(C)(C)C)[C@@H](O)C(=O)O[C@H]1C[C@@]2(O)[C@@H](OC(=O)c3cccc(OC)c3)[C@@H]3[C@]4(OC(C)=O)CO[C@@H]4C[C@H](O)[C@@]3(C)C(=O)[C@H](OC(=O)CC)C(=C1C)C2(C)C	1.2	–	–	–	–	–
CCC(=O)O[C@H]1C(=O)[C@@]2(C)[C@H]([C@H](OC(=O)c3cccc(N=[N+]=[N-])c3)[C@]3(O)C[C@H](OC(=O)[C@H](O)[C@H](C=C(C)C)NC(=O)OC(C)(C)C)C(C)=C1C3(C)C)[C@]1(OC(C)=O)CO[C@@H]1C[C@@H]2O	0.9	–	–	1.1	0.9	–
CCC(=O)O[C@H]1C(=O)[C@@]2(C)[C@H]([C@H](OC(=O)c3ccccc3)[C@]3(O)C[C@H](OC(=O)[C@H](O)[C@H](CC(C)C)NC(=O)OC(C)(C)C)C(C)=C1C3(C)C)[C@]1(OC(C)=O)CO[C@@H]1C[C@@H]2O	–	–	–	5.1	–	15
CC(=O)O[C@@]12CO[C@@H]1C[C@H](O)[C@@]1(C)C(=O)[C@H](O)C3=C(C)[C@@H](OC(=O)[C@H](O)[C@@H](NC(=O)OC(C)(C)C)c4ccccc4)C[C@@](O)([C@@H](OC(=O)c4ccccc4)[C@H]21)C3(C)C.O.O.O [DOCETAXEL]	1	120	–	–	–	–
COc1cccc(C(=O)O[C@H]2C(=O)[C@@]3(C)[C@H]([C@H](OC(=O)c4ccccc4)[C@]4(O)C[C@H](OC(=O)[C@H](O)[C@H](C=C(C)C)NC(=O)OC(C)(C)C)C(C)=C2C4(C)C)[C@]2(OC(C)=O)CO[C@@H]2C[C@@H]3O)c1	2.8	5.1	1.8	–	–	–
CC(=O)O[C@H]1C(=O)[C@@]2(C)[C@H]([C@H](OC(=O)c3cccc(C)c3)[C@]3(O)C[C@H](OC(=O)[C@H](O)[C@H](C=C(C)C)NC(=O)OC(C)(C)C)C(C)=C1C3(C)C)[C@]1(OC(C)=O)CO[C@@H]1C[C@@H]2O	1.5	–	–	5	0.8	–
COc1ccccc1C(=O)O[C@H]1C(=O)[C@@]2(C)[C@H]([C@H](OC(=O)c3ccccc3)[C@]3(O)C[C@H](OC(=O)[C@H](O)[C@H](C=C(C)C)NC(=O)OC(C)(C)C)C(C)=C1C3(C)C)[C@]1(OC(C)=O)CO[C@@H]1C[C@@H]2O	2.1	5.8	2.7	–	–	–
CCC(=O)O[C@H]1C(=O)[C@@]2(C)[C@H]([C@H](OC(=O)c3ccccc3)[C@]3(O)C[C@H](OC(=O)[C@H](O)[C@H](C=C(C)C)NC(=O)OC(C)(C)C)C(C)=C1C3(C)C)[C@]1(OC(C)=O)CO[C@@H]1C[C@@H]2O	–	–	–	4	–	22
COc1ccccc1CCC(=O)O[C@H]1C(=O)[C@@]2(C)[C@H]([C@H](OC(=O)c3ccccc3)[C@]3(O)C[C@H](OC(=O)[C@H](O)[C@H](C=C(C)C)NC(=O)OC(C)(C)C)C(C)=C1C3(C)C)[C@]1(OC(C)=O)CO[C@@H]1C[C@@H]2O	1.5	5	3.3	–	–	–
COc1cccc(C(=O)O[C@H]2[C@@H]3[C@]4(OC(C)=O)CO[C@@H]4C[C@H](O)[C@@]3(C)C(=O)[C@H](OC(C)=O)C3=C(C)[C@@H](OC(=O)[C@H](O)[C@H](C=C(C)C)NC(=O)OC(C)(C)C)C[C@]2(O)C3(C)C)c1	0.6	–	–	2.3	0.8	–
COc1cccc(C(=O)O[C@H]2[C@@H]3[C@]4(OC(C)=O)CO[C@@H]4C[C@H](O)[C@@]3(C)C(=O)[C@H](OC(=O)C3CC3)C3=C(C)[C@@H](OC(=O)[C@H](O)[C@H](C=C(C)C)NC(=O)OC(C)(C)C)C[C@]2(O)C3(C)C)c1	1	2.9	2.9	–	–	–
CCC(=O)O[C@H]1C(=O)[C@@]2(C)[C@H]([C@H](OC(=O)c3cccc(F)c3)[C@]3(O)C[C@H](OC(=O)[C@H](O)[C@H](C=C(C)C)NC(=O)OC(C)(C)C)C(C)=C1C3(C)C)[C@]1(OC(C)=O)CO[C@@H]1C[C@@H]2O	0.5	–	–	–	–	–
CC(=O)O[C@@]12CO[C@@H]1C[C@H](O)[C@@]1(C)C(=O)[C@H](OC(=O)c3cccc4ccccc34)C3=C(C)[C@@H](OC(=O)[C@H](O)[C@H](C=C(C)C)NC(=O)OC(C)(C)C)C[C@@](O)([C@@H](OC(=O)c4ccccc4)[C@H]21)C3(C)C	5.3	15.2	2.9	–	–	–
C=CCC[C@H](NC(=O)OC(C)(C)C)[C@@H](O)C(=O)O[C@H]1C[C@@]2(O)[C@@H](OC(=O)c3cccc(OC)c3)[C@@H]3[C@]4(OC(C)=O)CO[C@@H]4C[C@H](O)[C@@]3(C)C(=O)[C@H](OC(=O)CC)C(=C1C)C2(C)C	0.9	–	–	7.7	2	–
C=Cc1cccc(C(=O)O[C@H]2[C@@H]3[C@]4(OC(C)=O)CO[C@@H]4C[C@H](O)[C@@]3(C)C(=O)[C@H](OC(=O)CC)C3=C(C)[C@@H](OC(=O)[C@H](O)[C@H](C=C(C)C)NC(=O)OC(C)(C)C)C[C@]2(O)C3(C)C)c1	2.9	–	–	–	–	–
COc1ccc(CCC(=O)O[C@H]2C(=O)[C@@]3(C)[C@H]([C@H](OC(=O)c4ccccc4)[C@]4(O)C[C@H](OC(=O)[C@H](O)[C@H](C=C(C)C)NC(=O)OC(C)(C)C)C(C)=C2C4(C)C)[C@]2(OC(C)=O)CO[C@@H]2C[C@@H]3O)cc1	1.7	4.9	2.9	–	–	–
C=CC[C@H](NC(=O)OC(C)(C)C)[C@@H](O)C(=O)O[C@H]1C[C@@]2(O)[C@@H](OC(=O)c3cccc(OC)c3)[C@@H]3[C@]4(OC(C)=O)CO[C@@H]4C[C@H](O)[C@@]3(C)C(=O)[C@H](OC(=O)CC)C(=C1C)C2(C)C	1.2	–	–	8.7	0.8	–
CCC(=O)O[C@H]1C(=O)[C@@]2(C)[C@H]([C@H](OC(=O)c3cccc(N=[N+]=[N-])c3)[C@]3(O)C[C@H](OC(=O)[C@H](O)[C@H](CC(C)C)NC(=O)OC(C)(C)C)C(C)=C1C3(C)C)[C@]1(OC(C)=O)CO[C@@H]1C[C@@H]2O	1.1	–	–	2.1	1	–
COc1ccc(C(=O)O[C@H]2C(=O)[C@@]3(C)[C@H]([C@H](OC(=O)c4ccccc4)[C@]4(O)C[C@H](OC(=O)[C@H](O)[C@H](C=C(C)C)NC(=O)OC(C)(C)C)C(C)=C2C4(C)C)[C@]2(OC(C)=O)CO[C@@H]2C[C@@H]3O)cc1	3.8	4.7	1.2	–	–	–
CC(=O)O[C@@]12CO[C@@H]1C[C@H](O)[C@@]1(C)C(=O)[C@H](OC(=O)c3ccc4ccccc4c3)C3=C(C)[C@@H](OC(=O)[C@H](O)[C@H](C=C(C)C)NC(=O)OC(C)(C)C)C[C@@](O)([C@@H](OC(=O)c4ccccc4)[C@H]21)C3(C)C	6.3	15.2	2.4	–	–	–
CC(=O)O[C@@]12CO[C@@H]1C[C@H](O)[C@@]1(C)C(=O)[C@H](OC(=O)OCc3ccccc3)C3=C(C)[C@@H](OC(=O)[C@H](O)[C@H](C=C(C)C)NC(=O)OC(C)(C)C)C[C@@](O)([C@@H](OC(=O)c4ccccc4)[C@H]21)C3(C)C	1.8	16.7	9.3	–	–	–
COc1cccc(CCC(=O)O[C@H]2C(=O)[C@@]3(C)[C@H]([C@H](OC(=O)c4ccccc4)[C@]4(O)C[C@H](OC(=O)[C@H](O)[C@H](C=C(C)C)NC(=O)OC(C)(C)C)C(C)=C2C4(C)C)[C@]2(OC(C)=O)CO[C@@H]2C[C@@H]3O)c1	3.7	6.7	1.8	–	–	–
COc1cccc(CC(=O)O[C@H]2C(=O)[C@@]3(C)[C@H]([C@H](OC(=O)c4ccccc4)[C@]4(O)C[C@H](OC(=O)[C@H](O)[C@H](C=C(C)C)NC(=O)OC(C)(C)C)C(C)=C2C4(C)C)[C@]2(OC(C)=O)CO[C@@H]2C[C@@H]3O)c1	2.1	20.3	9.7	–	–	–
